The results in this text go back to article PMC6151660 (Molecules : A Journal of Synthetic Chemistry and Natural …, 2017).

This assay has as its system M. tuberculosis moxifloxacin resistant mutants (G88C, A90V, D94G in gyrase A) and H37Rv. It is filed as cell-based, Mycobacterium tuberculosis.

On to `Cc1cc(=O)oc2cc(OCCN3CCN(Cc4ccc(Br)cc4)CC3)ccc12` [CM12], for which the “activity in fluoroquinolone resistant strains” value is listed as “maintained potency in all evaluated strains” and the “growth inhibition compared with moxifloxacin” value is reported as “growth inhibition in similar ranges to moxifloxacin”.

In the case of `Cc1c(C#N)c(=O)oc2cc(OCCN3CCN(Cc4ccc(Br)cc4)CC3)ccc12` [CM14], the “activity in fluoroquinolone resistant strains” value was “maintained potency in all evaluated strains” and the “growth inhibition compared with moxifloxacin” value is on record as “growth inhibition in similar ranges to moxifloxacin”.
